How the values were obtained:
[1] = biological target: Tyrosine-protein kinase Fyn (Homo sapiens) (UniProt P06241); test: Residual activity of FYN at 1 uM by microplate scintillation counting
[2] = biological target: T1, Serine/threonine-protein kinase D2 (Homo sapiens) (UniProt Q9BZL6); test: Residual activity of PRKD2 at 1 uM by microplate scintillation counting
T1 sequence (whole entry): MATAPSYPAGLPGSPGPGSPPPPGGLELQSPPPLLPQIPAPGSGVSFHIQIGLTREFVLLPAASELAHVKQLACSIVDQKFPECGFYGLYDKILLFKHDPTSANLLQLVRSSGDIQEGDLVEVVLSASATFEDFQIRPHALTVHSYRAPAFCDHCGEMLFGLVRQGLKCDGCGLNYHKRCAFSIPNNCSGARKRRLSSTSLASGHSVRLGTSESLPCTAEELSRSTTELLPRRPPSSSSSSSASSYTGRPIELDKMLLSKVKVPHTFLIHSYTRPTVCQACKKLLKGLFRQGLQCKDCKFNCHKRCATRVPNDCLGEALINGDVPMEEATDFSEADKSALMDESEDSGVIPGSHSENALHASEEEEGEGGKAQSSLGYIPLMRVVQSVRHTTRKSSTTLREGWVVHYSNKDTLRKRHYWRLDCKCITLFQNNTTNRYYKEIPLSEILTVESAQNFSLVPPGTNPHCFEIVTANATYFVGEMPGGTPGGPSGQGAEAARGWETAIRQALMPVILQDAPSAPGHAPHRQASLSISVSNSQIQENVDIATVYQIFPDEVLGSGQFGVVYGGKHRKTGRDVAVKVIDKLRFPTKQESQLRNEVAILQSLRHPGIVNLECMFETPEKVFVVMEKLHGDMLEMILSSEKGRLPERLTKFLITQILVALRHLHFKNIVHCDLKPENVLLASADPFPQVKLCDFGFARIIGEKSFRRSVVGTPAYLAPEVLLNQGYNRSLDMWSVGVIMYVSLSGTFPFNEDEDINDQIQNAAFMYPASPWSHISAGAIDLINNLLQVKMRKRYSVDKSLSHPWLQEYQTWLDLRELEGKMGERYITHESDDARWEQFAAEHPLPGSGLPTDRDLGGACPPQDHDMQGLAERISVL

[3] = biological target: T2, Serine/threonine-protein kinase Nek1 (Homo sapiens) (UniProt Q96PY6); test: Residual activity of NEK1 at 0.1 uM by microplate scintillation counting
T2 sequence (whole entry): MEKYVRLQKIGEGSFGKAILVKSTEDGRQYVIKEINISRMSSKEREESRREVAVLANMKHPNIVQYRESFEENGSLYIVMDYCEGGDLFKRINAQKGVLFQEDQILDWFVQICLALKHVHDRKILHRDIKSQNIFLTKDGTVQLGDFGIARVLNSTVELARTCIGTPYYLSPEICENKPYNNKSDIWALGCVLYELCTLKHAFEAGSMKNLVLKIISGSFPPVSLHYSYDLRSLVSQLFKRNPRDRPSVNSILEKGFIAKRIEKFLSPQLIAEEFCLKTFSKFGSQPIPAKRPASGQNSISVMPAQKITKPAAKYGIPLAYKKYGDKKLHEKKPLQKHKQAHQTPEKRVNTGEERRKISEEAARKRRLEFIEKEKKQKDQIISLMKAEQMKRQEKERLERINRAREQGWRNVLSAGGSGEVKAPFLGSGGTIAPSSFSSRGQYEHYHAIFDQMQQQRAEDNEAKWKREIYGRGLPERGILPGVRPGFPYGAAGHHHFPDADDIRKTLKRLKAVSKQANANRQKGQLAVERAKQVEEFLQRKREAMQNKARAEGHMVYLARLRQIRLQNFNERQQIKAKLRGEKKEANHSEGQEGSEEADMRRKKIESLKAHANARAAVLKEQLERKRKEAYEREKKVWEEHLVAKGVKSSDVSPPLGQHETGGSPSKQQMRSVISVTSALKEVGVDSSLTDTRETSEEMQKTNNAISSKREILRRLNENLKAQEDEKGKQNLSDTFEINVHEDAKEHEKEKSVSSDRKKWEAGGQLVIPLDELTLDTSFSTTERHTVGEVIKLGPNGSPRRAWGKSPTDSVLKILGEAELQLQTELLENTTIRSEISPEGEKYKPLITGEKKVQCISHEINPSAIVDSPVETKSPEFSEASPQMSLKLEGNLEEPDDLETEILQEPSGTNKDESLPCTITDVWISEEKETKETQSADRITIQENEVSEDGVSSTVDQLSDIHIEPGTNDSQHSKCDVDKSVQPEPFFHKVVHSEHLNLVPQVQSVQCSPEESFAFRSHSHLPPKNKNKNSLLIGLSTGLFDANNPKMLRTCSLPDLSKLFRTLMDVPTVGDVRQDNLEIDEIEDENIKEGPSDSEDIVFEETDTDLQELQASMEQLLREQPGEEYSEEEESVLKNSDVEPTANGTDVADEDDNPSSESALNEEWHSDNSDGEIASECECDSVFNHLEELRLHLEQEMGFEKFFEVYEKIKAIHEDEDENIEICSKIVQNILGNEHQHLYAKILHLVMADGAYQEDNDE

[4] = biological target: T3, NUAK family SNF1-like kinase 1 (Homo sapiens) (UniProt O60285); test: Residual activity of ARK5 at 1 uM by microplate scintillation counting
T3 sequence (whole entry): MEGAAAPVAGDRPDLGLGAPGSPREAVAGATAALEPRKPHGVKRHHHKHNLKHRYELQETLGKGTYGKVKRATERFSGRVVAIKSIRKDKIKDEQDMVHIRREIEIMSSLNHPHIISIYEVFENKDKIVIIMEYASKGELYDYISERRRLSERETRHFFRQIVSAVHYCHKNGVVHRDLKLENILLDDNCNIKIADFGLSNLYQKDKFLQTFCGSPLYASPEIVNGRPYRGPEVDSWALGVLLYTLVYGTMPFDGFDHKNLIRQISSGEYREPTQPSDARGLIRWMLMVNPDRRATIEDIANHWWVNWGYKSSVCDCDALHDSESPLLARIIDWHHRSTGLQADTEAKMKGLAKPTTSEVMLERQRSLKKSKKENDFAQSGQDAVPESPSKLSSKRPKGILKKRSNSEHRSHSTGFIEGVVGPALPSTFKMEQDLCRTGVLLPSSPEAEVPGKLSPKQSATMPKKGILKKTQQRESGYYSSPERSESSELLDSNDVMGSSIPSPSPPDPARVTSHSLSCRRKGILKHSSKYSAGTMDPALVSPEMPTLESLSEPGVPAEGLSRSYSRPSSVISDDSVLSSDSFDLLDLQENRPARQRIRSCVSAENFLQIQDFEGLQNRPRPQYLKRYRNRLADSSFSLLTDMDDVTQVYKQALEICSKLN

Sequence of Tyrosine-protein kinase Fyn (Homo sapiens) (P06241 2-537 limits assumed): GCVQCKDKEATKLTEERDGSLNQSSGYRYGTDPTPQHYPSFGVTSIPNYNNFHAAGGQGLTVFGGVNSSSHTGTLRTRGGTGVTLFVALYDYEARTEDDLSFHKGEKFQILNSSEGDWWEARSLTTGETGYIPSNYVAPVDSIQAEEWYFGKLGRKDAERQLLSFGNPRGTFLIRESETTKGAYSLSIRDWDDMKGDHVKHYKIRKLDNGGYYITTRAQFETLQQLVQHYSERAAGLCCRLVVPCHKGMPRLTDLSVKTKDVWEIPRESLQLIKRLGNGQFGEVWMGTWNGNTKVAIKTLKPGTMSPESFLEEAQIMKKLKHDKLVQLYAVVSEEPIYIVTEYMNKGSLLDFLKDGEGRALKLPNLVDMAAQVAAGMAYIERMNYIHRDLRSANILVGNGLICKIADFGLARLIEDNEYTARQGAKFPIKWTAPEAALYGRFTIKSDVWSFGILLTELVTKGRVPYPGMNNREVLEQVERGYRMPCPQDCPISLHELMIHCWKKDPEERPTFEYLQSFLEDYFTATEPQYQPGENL

| residual activity [1] [%] | residual activity [2] [%] | residual activity [3] [%] | residual activity [4] [%] | SMILES |
| --- | --- | --- | --- | --- |
| 106 | 94 | 98 | 91 | COc1cc2c(Oc3ccc(-c4nc5ccccc5s4)cc3)ncnc2cc1OCCCN1CCCC1 |
| 105 | 82 | 87 | 88 | COc1cc2c(Oc3ccc(-c4nc5ccccc5s4)cc3)ncnc2cc1OCCCN1CCN(C)CC1 |
| 106 | 90 | 93 | 101 | COc1cc2c(Oc3ccc(-c4nc5ccccc5s4)cc3F)ncnc2cc1OCCCN1CCN(C)CC1 |

Reference: ChEMBL document CHEMBL1152560, “Substituted 2-arylbenzothiazoles as kinase inhibitors: hit-to-lead optimization” (Bioorg Med Chem, 2009)
